According to patent US9468661B2, “Pyrrolidine derivatives and their use as complement pathway modulators” (priority 2012, dated 2016):

Target: human factor D (Homo sapiens (Human), UniProt P00746)
Experiment: biochemical
Format: biochemical
Conditions: Factor D inhibition data using Method 1; recombinant human factor D 10 nM, substrate Z-Lys-thiobenzyl, fluorescence; read-out: IC50
How it was run: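 E. coli-expressed recombinant human factor D (10 nM) was preincubated with compound for 1 h at room temperature in 0.1 M Hepes pH 7.5, 1 mM MgCl2, 1 M NaCl, 0.05% CHAPS. Fluorescence (ex 485/em 535 nm) was read after adding Z-Lys-thiobenzyl (200 μM) and 2,4-dinitrobenzenesulfonyl-fluoresceine (25 μM); IC50 came from percent inhibition versus concentration.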

Chain of human factor D (P00746 26-253): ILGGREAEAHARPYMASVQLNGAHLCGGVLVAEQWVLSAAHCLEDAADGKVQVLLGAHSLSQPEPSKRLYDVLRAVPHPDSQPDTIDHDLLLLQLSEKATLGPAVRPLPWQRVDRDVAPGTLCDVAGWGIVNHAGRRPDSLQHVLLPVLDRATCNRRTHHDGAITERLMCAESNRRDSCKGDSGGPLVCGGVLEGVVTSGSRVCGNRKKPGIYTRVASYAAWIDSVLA

Compound	IC50 [nM]
NC(=O)c1nn(CC(=O)N2[C@@H]3C[C@@H]3C[C@H]2C(=O)NC[C@H]2CC2(Cl)Cl)c2cnccc12 [Example 72, 1-(2-{(1R,3S,5R)-3-[((R)-2,2-Dichloro-cyclopropylmethyl)-carbamoyl]-2-aza-bicyclo[3.1.0]hex-2-yl}-2-oxo-ethyl)-1H-pyrazolo[3,4-c]pyridine-3-carboxylic acid amide]	36
CC(=O)c1nn(CC(=O)N2[C@@H]3C[C@@H]3C[C@H]2C(=O)NC[C@H]2CC2(Cl)Cl)c2cnccc12 [Example 92, (1R,3S,5R)-2-[2-(3-Acetyl-pyrazolo[3,4-c]pyridin-1-yl)-acetyl]-2-aza-bicyclo[3.1.0] hexane-3-carboxylic acid ((R)-2,2-dichloro-cyclopropylmethyl)-amide]	24
CC(=O)c1nn(CC(=O)N2[C@@H]3C[C@@H]3C[C@H]2C(=O)NC[C@@H]2CC2(Cl)Cl)c2ccc(OCc3ncccn3)cc12 [Example 93, (1R,3S,5R)-2-{2-[3-Acetyl-5-(pyrimidin-2-ylmethoxy)-indazol-1-yl]-acetyl}-2-aza-bicyclo[3.1.0] hexane-3-carboxylic acid ((S)-2,2-dichloro-cyclopropylmethyl)-amide]	19
NC(=O)c1nn(CC(=O)N2[C@@H]3C[C@@H]3C[C@H]2C(=O)NC[C@H]2CC2(Cl)Cl)c2ccncc12 [Example 95, 1-(2-{(1R,3S,5R)-3-[((R)-2,2-Dichlorocyclopropylmethyl)-carbamoyl]-2-aza-bicyclo[3.1.0]hex-2-yl}-2-oxo-ethyl)-1H-pyrazolo[4,3-c]pyridine-3-carboxylic acid amide]	482
NC(=O)c1nn(CC(=O)N2[C@@H]3C[C@@H]3C[C@H]2C(=O)NC[C@H]2CC2(Cl)Cl)c2cc(F)c(F)cc12 [Example 96, 1-(2-{(1R,3S,5R)-3-[((R)-2,2-Dichloro-cyclopropylmethyl)-carbamoyl]-2-aza-bicyclo[3.1.0]hex-2-yl}-2-oxo-ethyl)-5,6-difluoro-1H-indazole-3-carboxylic acid amide]	307
NC(=O)c1nn(CC(=O)N2[C@@H]3C[C@@H]3C[C@H]2C(=O)NC[C@H]2CC2(Cl)Cl)c2ccc(Cl)cc12 [Example 97, 5-Chloro-1-(2-{(1R,3S,5R)-3-[((R)-2,2-dichloro-cyclopropylmethyl)-carbamoyl]-2-aza-bicyclo[3.1.0]hex-2-yl}-2-oxo-ethyl)-1H-indazole-3-carboxylic acid amide]	218
NC(=O)c1nn(CC(=O)N2[C@@H]3C[C@@H]3C[C@H]2C(=O)NC[C@H]2CC2(Cl)Cl)c2ccc(F)cc12 [Example 98, 1-(2-{(1R,3S,5R)-3-[((R)-2,2-Dichloro-cyclopropylmethyl)-carbamoyl]-2-aza-bicyclo[3.1.0]hex-2-yl}-2-oxo-ethyl)-5-fluoro-1H-indazole-3-carboxylic acid amide]	248
CC(=O)c1nn(CC(=O)N2[C@@H]3C[C@@H]3C[C@H]2C(=O)NC[C@H]2CC2(Cl)Cl)c2ccc(OCc3ncccc3F)cc12 [Example 99, (1R,3S,5R)-2-{2-[3-Acetyl-5-(3-fluoro-pyridin-2-ylmethoxy)-indazol-1-yl]-acetyl}-2-aza-bicyclo[3.1.0]hexane-3-carboxylic acid ((R)-2,2-dichloro-cyclopropylmethyl)-amide]	32
CC(=O)c1nn(CC(=O)N2[C@@H]3C[C@@H]3C[C@H]2C(=O)NC[C@H]2CC2(Cl)Cl)c2ccc(OC(C)c3ncccn3)cc12 (stereo partly drawn) [Example 100, (1R,3S,5R)-2-{2-[3-Acetyl-5-(1-pyrimidin-2-yl-ethoxy)-indazol-1-yl]-acetyl}-2-aza-bicyclo[3.1.0]hexane-3-carboxylic acid ((R)-2,2-dichloro-cyclopropylmethyl)-amide]	158
CC1(C)[C@@H](CNC(=O)[C@@H]2C[C@H]3C[C@H]3N2C(=O)Cn2nc(C(N)=O)c3ccncc32)C1(Cl)Cl [Example 101, 1-(2-{(1R,3S,5R)-3-[((S)-2,2-Dichloro-3,3-dimethyl-cyclopropylmethyl)-carbamoyl]-2-aza-bicyclo[3.1.0]hex-2-yl}-2-oxo-ethyl)-1H-pyrazolo[3,4-c]pyridine-3-carboxylic acid amide]	297
CC1(C)[C@H](CNC(=O)[C@@H]2C[C@H]3C[C@H]3N2C(=O)Cn2nc(C(N)=O)c3ccncc32)C1(Cl)Cl [Example 102, 1-(2-{(1R,3S,5R)-3-[((R)-2,2-Dichloro-3,3-dimethyl-cyclopropylmethyl)-carbamoyl]-2-aza-bicyclo[3.1.0]hex-2-yl}-2-oxo-ethyl)-1H-pyrazolo[3,4-c]pyridine-3-carboxylic acid amide]	118
CC(=O)c1nn(CC(=O)N2[C@@H]3C[C@@H]3C[C@H]2C(=O)NC[C@@H]2C(C)(C)C2(Cl)Cl)c2ccc(OCc3ncccn3)cc12 [Example 103, (1R,3S,5R)-2-{2-[3-Acetyl-5-(pyrimidin-2-ylmethoxy)-indazol-1-yl]-acetyl}-2-aza-bicyclo[3.1.0] hexane-3-carboxylic acid ((S)-2,2-dichloro-3,3-dimethyl-cyclopropylmethyl)-amide]	70
CC(=O)c1nn(CC(=O)N2[C@@H]3C[C@@H]3C[C@H]2C(=O)NC[C@H]2C(C)(C)C2(Cl)Cl)c2ccc(OCc3ncccn3)cc12 [Example 104, (1R,3S,5R)-2-{2-[3-Acetyl-5-(pyrimidin-2-ylmethoxy)-indazol-1-yl]-acetyl}-2-aza-bicyclo[3.1.0] hexane-3-carboxylic acid ((R)-2,2-dichloro-3,3-dimethyl-cyclopropylmethyl)-amide]	16
CC(=O)c1nn(CC(=O)N2[C@@H]3C[C@@H]3C[C@H]2C(=O)NC[C@H]2CC2(Cl)Cl)c2ccc(OCc3cscn3)cc12 [Example 105, (1R,3S,5R)-2-{2-[3-Acetyl-5-(thiazol-4-ylmethoxy)-indazol-1-yl]-acetyl}-2-aza-bicyclo[3.1.0]hexane-3-carboxylic acid ((R)-2,2-dichloro-cyclopropylmethyl)-amide]	14
CC(=O)c1nn(CC(=O)N2[C@@H]3C[C@@H]3C[C@H]2C(=O)NC[C@H]2CC2(Cl)Cl)c2ccc(OCc3nccs3)cc12 [Example 106, (1R,3S,5R)-2-{2-[3-Acetyl-5-(thiazol-2-ylmethoxy)-indazol-1-yl]-acetyl}-2-aza-bicyclo[3.1.0]hexane-3-carboxylic acid ((R)-2,2-dichloro-cyclopropylmethyl)-amide]	5
CC1(C)[C@H](CNC(=O)[C@@H]2C[C@H]3C[C@H]3N2C(=O)Cn2nc(C(N)=O)c3ccccc32)C1(Cl)Cl [Example 107, 1-(2-{(1R,3S,5R)-3-[((R)-2,2-Dichloro-3,3-dimethyl-cyclopropylmethyl)-carbamoyl]-2-aza-bicyclo[3.1.0]hex-2-yl}-2-oxo-ethyl)-1H-indazole-3-carboxylic acid amide]	52
NC(=O)c1nn(CC(=O)N2[C@@H]3C[C@@H]3C[C@H]2C(=O)NC[C@H]2CC2(Cl)Cl)c2ccc(OCc3ncccn3)cc12 [Example 110, 1-(2-{(1R,3S,5R)-3-[((R)-2,2-Dichloro-cyclopropylmethyl)-carbamoyl]-2-aza-bicyclo [3.1.0]hex-2-yl}-2-oxo-ethyl)-5-(pyrimidin-2-ylmethoxy)-1H-indazole-3-carboxylic acid amide]	41
